From PMC10208570, “Peptidomimetic antibiotics disrupt the lipopolysaccharide transport bridge of drug-resistant Enterobacteriaceae” (Science Advances, 2023) come the findings set out here.

Assay [1] deals with Klebsiella pneumoniae NCTC 13443 YejM mutant. Nature of the assay: microbe, parasite or virus in culture. The following applies: Klebsiella pneumoniae, NCTC13443, read-out: MIC Klebsiella pneumoniae NCTC 13443 YejM (1x). As for the experimental part: (§1) MIC assays [Clinical and Laboratory Standards Institute (CLSI) methodology] and serial passage studies were performed as described by Luther et al. ([6]). […] Resistant mutants were isolated, and their MIC values were determined and sent to Microbes NG (Birmingham, United Kingdom) for whole-genome sequencing and bioinformatic analysis.

The test system of assay [2] is K. pneumoniae ATCC 43816 LptA Q62L mutant. The assay can be described thus: microbe, parasite or virus in culture. The following applies: Klebsiella pneumoniae, ATCC43816, read-out: MIC Klebsiella pneumoniae ATCC 43816 LptA Q62L (4x). As for the experimental part:
as §1

The subject of assay [3] is Klebsiella pneumoniae ATCC 43816 LptA I36S mutant. Nature of the assay: microbe, parasite or virus in culture. The following applies: Klebsiella pneumoniae, ATCC43816, read-out: MIC Klebsiella pneumoniae ATCC 43816 LptA I36S (1x). As for the experimental part:
as §1

Assay [4] concerns Klebsiella pneumoniae NCTC 13443 LpxC, LpxD mutant. Nature of the assay: microbe, parasite or virus in culture. As to conditions: Klebsiella pneumoniae, NCTC13443, read-out: MIC Klebsiella pneumoniae NCTC 13443 LpxC, LpxD (1x). The procedure: as §1
Assay [5] relates to Escherichia coli ATCC 25922 KdsD mutant. Nature of the assay: microbe, parasite or virus in culture. As to conditions: Escherichia coli, ATCC25922, read-out: MIC Escherichia coli ATCC 25922 KdsD (2x). The procedure: as §1
In assay [6] the test system is K. pneumoniae NCTC 13443 (NDM-1) LptA Q62L mutant. Nature of the assay: microbe, parasite or virus in culture. As to conditions: Klebsiella pneumoniae, NCTC13443, read-out: MIC Klebsiella pneumoniae NCTC 13443 LptA Q62L (5x). The procedure: as §1
Assay [7] has as its system Escherichia coli ATCC 25922 LptA E84D mutant. The assay can be described thus: microbe, parasite or virus in culture. As to conditions: Escherichia coli, ATCC25922, read-out: MIC Escherichia coli ATCC 25922 LptA E84D (1x). As for the experimental part:
as §1

The test system of assay [8] is Klebsiella pneumoniae ATCC 43816 LptA I36N mutant. The assay can be described thus: microbe, parasite or virus in culture. The following applies: Klebsiella pneumoniae, ATCC43816, read-out: MIC Klebsiella pneumoniae ATCC 43816 LptA I36N (1x). The procedure: as §1
Assay [9] concerns K. pneumoniae ATCC 43816 (parent / WT). The assay can be described thus: microbe, parasite or virus in culture. The following applies: Klebsiella pneumoniae. The procedure:
as §1

Assay [10] concerns Klebsiella pneumoniae NCTC 13443 LptA I36S mutant. The assay can be described thus: microbe, parasite or virus in culture. The following applies: Klebsiella pneumoniae, NCTC13443, read-out: MIC Klebsiella pneumoniae NCTC 13443 LptA I36S (2x). As for the experimental part:
as §1

Assay [11] deals with E. coli ATCC 25922 LptA Q62L mutant. Nature of the assay: microbe, parasite or virus in culture. The following applies: Escherichia coli. As for the experimental part:
as §1

For assay [12], the system named is E. coli ATCC 25922 (parent / WT). The assay can be described thus: microbe, parasite or virus in culture. As to conditions: Escherichia coli. The procedure:
as §1

The test system of assay [13] is Klebsiella pneumoniae ATCC 43816 LapB mutant. The assay can be described thus: microbe, parasite or virus in culture. As to conditions: Klebsiella pneumoniae, ATCC43816, read-out: MIC Klebsiella pneumoniae ATCC 43816 LapB (1x). The procedure:
as §1

For assay [14], the system named is K. pneumoniae NCTC 13443 (NDM-1) (parent / WT). Nature of the assay: microbe, parasite or virus in culture. As to conditions: Klebsiella pneumoniae. The procedure:
as §1

The subject of assay [15] is Klebsiella pneumoniae ATCC 43816 PglJ, PhnJ, ThiH mutant. Nature of the assay: microbe, parasite or virus in culture. The following applies: Klebsiella pneumoniae, ATCC43816, read-out: MIC Klebsiella pneumoniae ATCC 43816 PglJ, PhnJ, ThiH (1x). The procedure: as §1
The subject of assay [16] is Klebsiella pneumoniae ATCC 43816 LptA L116Q mutant. The assay can be described thus: microbe, parasite or virus in culture. As to conditions: Klebsiella pneumoniae, ATCC43816, read-out: MIC Klebsiella pneumoniae ATCC 43816 LptA L116Q (1x). The procedure:
as §1

Assay [17] deals with K. pneumoniae 968733 (CST-R). Nature of the assay: MIC assay (CLSI). The following applies: Klebsiella pneumoniae, read-out: MIC K. pneumoniae 968733 (CST-R) Parent. Format: cell-based, Klebsiella pneumoniae. The procedure:
as §1

[18] abbreviates: ATCC43816, read-out: MIC Klebsiella pneumoniae ATCC 43816 WT.
[19] abbreviates: ATCC25922, read-out: MIC Escherichia coli ATCC 25922 LptA Q62L (7x).
Setting [20] is: ATCC25922, read-out: MIC Escherichia coli ATCC 25922 WT.
Where [21] appears, read: NCTC13443, read-out: MIC Klebsiella pneumoniae NCTC 13443 WT.

Values after ≈ are worked out from the molar mass of the structure shown. Like-named read-outs stand apart in the source and are kept apart here.

For the compound `CO[C@@H]1[C@@H](OC(N)=O)[C@@H](O)[C@H](Oc2ccc3c(O)c(NC(=O)c4ccc(O)c(CC=C(C)C)c4)c(=O)oc3c2C)OC1(C)C` [Novobiocin], the MIC in [1] was more than 64 µg/mL; in [2], more than 64 µg/mL; in assay [3], more than 64 µg/mL; in assay [4], more than 64 µg/mL; in assay [5], 64 µg/mL (≈ 104 µM); in assay [6], more than 64 µg/mL. The MIC in [7] was more than 64 µg/mL; in assay [8], more than 64 µg/mL; in assay [9] (setting [18]), more than 64 µg/mL; in [10], more than 64 µg/mL; in assay [11] (setting [19]) it was 64 µg/mL (≈ 104 µM); in [12] (setting [20]), more than 64 µg/mL. Besides, the MIC in assay [13] is 32 µg/mL (≈ 52.2 µM); in assay [14] (setting [21]), more than 64 µg/mL; in assay [15], 32 µg/mL (≈ 52.2 µM); in assay [16], more than 64 µg/mL.

For the compound `CN(C)c1cc(NC(=O)CNC(C)(C)C)c(O)c2c1C[C@H]1C[C@H]3[C@H](N(C)C)C(O)=C(C(N)=O)C(=O)[C@@]3(O)C(O)=C1C2=O` [Tigecycline, reference compound], the MIC in assay [17] turned out to be 0.5 µg/mL (≈ 0.854 µM); in [9] (ATCC43816, read-out: MIC K. pneumoniae ATCC 43816 Parent), 0.5 µg/mL (≈ 0.854 µM); in assay [11] (ATCC25922, read-out: MIC E. coli ATCC 25922 Q62L mutant), 0.25 µg/mL (≈ 0.427 µM); in assay [12] (ATCC25922, read-out: MIC E. coli ATCC 25922 Parent), 0.25 µg/mL (≈ 0.427 µM); in assay [14] (NCTC13443, read-out: MIC K. pneumoniae NCTC 13443 (NDM-1) Parent) it was 2 µg/mL (≈ 3.41 µM).

Consider `CN[C@H](CC(C)C)C(=O)N[C@H]1C(=O)N[C@@H](CC(N)=O)C(=O)N[C@H]2C(=O)N[C@H]3C(=O)N[C@H](C(=O)N[C@H](C(=O)O)c4cc(O)cc(O)c4-c4cc3ccc4O)[C@H](O)c3ccc(c(Cl)c3)Oc3cc2cc(c3O[C@@H]2O[C@H](CO)[C@@H](O)[C@H](O)[C@H]2O[C@H]2C[C@](C)(N)[C@H](O)[C@H](C)O2)Oc2ccc(cc2Cl)[C@H]1O` [Vancomycin], for which the MIC in assay [1], in [2], in assay [3], in [4], in [5] and in assay [6] was more than 64 µg/mL each time. Also, the MIC in assay [7], in assay [8], in [9] (setting [18]), in [10], in [11] (setting [19]) and in [12] (setting [20]) was more than 64 µg/mL in each case. The MIC in [13], in assay [14] (setting [21]), in assay [15] and in assay [16] was more than 64 µg/mL throughout.
